The source of these data is ChEMBL document CHEMBL5113544, “Development of Brain-Tumor-Targeted Benzothiazole-Based Boron Complex for Boron Neutron Capture Therapy” (ACS Med Chem Lett, 2022).

Data set [1] can be described thus: Cytotoxicity against HEK293 cells assessed as cell survival at upto 100 uM incubated for 22 hrs by cell counting kit analysis relative to control. Type of data set: toxicity, cell-based. As to conditions: human, read-out: Survival; call rule not given here.
Data set [2] in a line: Effective permeability of the compound in pH 7.4 at 25 uM incubated for 4 hrs by PAMPA-BBB assay. The note with it: read-out: Peff. The data set is classed as ADME.
The nature of data set [3]: Cytotoxicity against human U-87 MG cells incubated for 22 hrs by cell counting kit analysis. Type of data set: functional, cell-based, U-87MG ATCC.
Data set [4] is described as follows: Cytotoxicity against human U-87 MG cells assessed as cell survival at 100 uM incubated for 22 hrs by cell counting kit analysis relative to control. The note with it: read-out: Survival. The data set is classed as functional, U-87MG ATCC.
Data set [5] is described as follows: Cytotoxicity against HEK293 cells incubated for 22 hrs by cell counting kit analysis. As to conditions: human. Type of data set: toxicity, cell-based.
A short description of data set [6]: Biodistribution in blood of BALB/c nude mouse xenografted with human U-87 MG cells assessed as boron concentration at 500 mg/kg, ip measured 4 hrs post injection by ICP-MS analysis. The data set is classed as ADME, organism-based. The note with it: in vivo.
A further data set concerns HEK293. Put plainly: Cytotoxicity against HEK293 cells assessed as reduction in cell survival at higher concentrations incubated for 22 hrs by cell counting kit analysis. As to conditions: human, hek293, 22 h. Type of data set: toxicity, cell-based.
Data set [7] can be described thus: Octanol/water partition coefficient, logP of compound at 10 mg incubated for 24 hrs by ICP-MS analysis. The data set is classed as physicochemical.

Structures are written as SMILES. Where only a bound is given, the exact number is not on record here.

As to `OB(O)c1ccc(-c2nc3ccccc3s2)cc1`, the viability at 22 h, up to 100 µM in data set [1] was greater than 95%. In addition, the Papp at 4 h, 25 µM in data set [2] is 59.8 ×10⁻⁶ cm/s. This compound yielded an IC50 in data set [3] of 112 µM. For the same compound, the viability at 100 µM in data set [4] was less than 43%. The midpoint of inhibition in data set [5], the IC50 at 22 h, lay at 265 µM. Moreover, the Drug uptake entry in data set [6] is on record as “Active”. Further, the Activity entry in the data set on HEK293 is recorded as “Toxic”. Besides, in data set [7], the logP at 24 h stood at 0.32.
